Source: patent publication US20120041058A1, “COMPOSITION OF TRADITIONAL CHINESE MEDICINE FOR REDUCING BLOOD FAT AND PREPARATION METHOD THEREOF” (ANJI GREEN LIFE BIOTECH CO., LTD., priority 2009, published 2012)

System: acute high-lipid mouse model
Experiment: Acute high-lipid mouse model resulted from egg yolk emulsion injection: serum cholesterol and triglycerides
Format: in vivo, ICR mice
Settings: for T-cho / Trig: ICR mice, oral 1 time/d for 14 d, blood 20 h after ip 75% egg yolk emulsion; for T-cho / Trig / Reduction rate of cholesterol / Reduction rate of triglyceride: dose 2 mg/mouse; for Reduction rate of cholesterol / Reduction rate of triglyceride: vs model mouse group, 14 d; for blood-lipid-lowering effect on the mouse model of high blood lipid caused by the egg yolk emulsion: after two weeks of oral administration, result in words
Protocol: The Treatment Efficiency of Blood-Lipid-Lowering Traditional Chinese Medicine Compositions Having Different Component Proportions on the Acute High-Lipid Mouse Models Resulted from Egg Yolk Emulsion Injection Male ICR mice of 20 g˜22 g are divided into several groups after 5 d adaptive feeding: control group, fed with normal saline; model group, fed with normal saline; positive control group, fed with Xuezhikang of 1000 mg/kg.

Q: Which results are given for `C[C@@H]1CC[C@H]2[C@@H](C)C(=O)O[C@@H]3O[C@@]4(C)CC[C@@H]1[C@]32OO4` [Artemisinin, artemisinin]?
A: T-cho: 6.10 ± 3.20 mmol/L; Trig: 8.90 ± 4.00 mmol/L; Reduction rate of cholesterol: 25.1%; Reduction rate of triglyceride: 12.9%

Q: Which results are given for `C[C@H]1[C@H](OC(=O)CCC(=O)O)O[C@@H]2O[C@@]3(C)CC[C@H]4[C@H](C)CC[C@@H]1[C@@]24OO3` [Artesunate, artesunate]?
A: T-cho: 8.32 ± 1.09 mmol/L; Trig: 10.72 ± 2.68 mmol/L; blood-lipid-lowering effect on the mouse model of high blood lipid caused by the egg yolk emulsion: neither ursolic acid nor artesunate had the blood-lipid-lowering effect; Reduction rate of cholesterol: −2.21%; Reduction rate of triglyceride: −4.89%

Q: Which T-cho does the source give for `C[C@H]1[C@H](C)CC[C@]2(C(=O)O)CC[C@]3(C)C(=CC[C@@H]4[C@@]5(C)CC[C@H](O)C(C)(C)[C@@H]5CC[C@]43C)[C@H]12` [Ursolic acid, ursolic acid] here?
A: 9.11 ± 1.49 mmol/L

Q: What about the Trig of the same compound?
A: 13.37 ± 3.63 mmol/L

Q: And the “blood-lipid-lowering effect on the mouse model of high blood lipid caused by the egg yolk emulsion” value?
A: neither ursolic acid nor artesunate had the blood-lipid-lowering effect

Q: What about the “Reduction rate of cholesterol” value of the same compound?
A: −11.92%

Q: What about the “Reduction rate of triglyceride” value of the same compound?
A: −30.82%
